# Reference: PMC6742646, “Extensive disruption of protein interactions by genetic variants across the allele frequency spectrum in human populations” (Nature Communications, 2019)
# Target: T1, AKR7A2 (Homo sapiens, UniProt O43488)
# T1 construct: hORFeome ORF cloned EcoRI/XhoI in pET-6xHis-SUMO; E. coli Rosetta; cobalt purified, His-SUMO tag cleaved with Ulp1, FPLC; dimer in solution
# Test: NADPH-dependent SSA reduction, absorbance plate assay
# Type: biochemical
# Conditions: 0.5 mM NADPH, sodium phosphate pH 8.0, 37 °C; SSA 0.50-3.5 mM; only kcat/KM printed
# T1 sequence (O43488 whole entry): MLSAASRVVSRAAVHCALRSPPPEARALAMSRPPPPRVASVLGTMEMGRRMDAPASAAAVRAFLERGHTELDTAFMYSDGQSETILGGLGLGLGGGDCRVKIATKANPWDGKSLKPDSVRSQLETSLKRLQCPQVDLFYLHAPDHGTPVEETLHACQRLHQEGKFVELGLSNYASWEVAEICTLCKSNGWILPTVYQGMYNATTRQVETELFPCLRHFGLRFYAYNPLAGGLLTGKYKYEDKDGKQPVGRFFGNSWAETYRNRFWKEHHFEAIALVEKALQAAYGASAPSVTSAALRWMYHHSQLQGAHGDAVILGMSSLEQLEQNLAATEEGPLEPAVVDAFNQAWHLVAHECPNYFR
structure (smiles),measurement,value
O=CCCC(=O)O [succinic semialdehyde],"NADPH-dependent SSA reduction, absorbance plate assay",we purified recombinant WT and mutant AKR7A2 protein to test for changes in NADPH-dependent turnover
